Laboratory results taken from US9981923B2, “1,2,3 Triazole antifungal agents and preparation thereof” (COUNCIL OF SCIENTIFIC & INDUSTRIAL RESEARCH, priority 2014, dated 2018).
In brackets after ≈: the same amount, converted by molar mass. Where two headings read alike, the source gives them in different places.

What was measured:
Experiment in all cases: Antifungal susceptibility by microbroth dilution (CLSI)
Assay type in all cases: cell-based
[1] = test system: Aspergillus fumigatus MCC 1046
Procedure: (§1) The synthesized compounds were evaluated for antifungal susceptibility by microbroth dilution method according to the recommendations of the Clinical Laboratory Standards Institute (CLSI 2008). Briefly, appropriate amount of compounds were dissolved in dimethyl sulfoxide to get 100× final strength. The stock was then diluted 1:50 in RPMI/YPG medium and 200 μl from this was added to the first row of a 96-well microtitre plate. The compounds were serially diluted two fold in successive wells to get a range of 1-128 μg/ml. Fungal yeast cells (˜2×10^3 cfu/mL), freshly grown in YPG broth in logarithmic phase, were suspended in the medium and inoculated (100 μl) in the wells of the plate. For filamentous fungi, 2×10^4 spores/mL were added. The microtitre plate was incubated for 48 h, and the absorbance was measured at 600 nm by using microtitre plate reader to assess cell growth.

[2] = test system: Aspergillus niger ATCC 10578
Procedure: as §1

[3] = test system: Candida albicans ATCC 10231
Procedure: as §1

[4] = test system: Candida albicans ATCC 24433
Procedure: as §1

[5] = test system: Candida glabrata NCYC 388
Procedure: as §1

[6] = test system: Cryptococcus neoformans ATCC 34664
Procedure: as §1

[7] = test system: C. tropicalis ATCC 750; conditions: Table 2; for MIC: Candida tropicalis, ATCC750
Procedure: as §1

[8] = Table 1, 48 h, >90% inhibition of growth
[9] = Table 1, 48 h, >90% inhibition of growth, range 1-128 μg/ml
[10] = Aspergillus fumigatus, MCC1046, Table 2, read-out: MIC values
[11] = Aspergillus niger, ATCC10578, Table 2, read-out: MIC values
[12] = Candida albicans, ATCC24433, Table 2, read-out: MIC values
[13] = Cryptococcus neoformans, ATCC34664, Table 2, read-out: MIC values
[14] = Candida albicans, ATCC10231, Table 2, read-out: MIC values
[15] = Nakaseomyces glabratus, NCYC388, Table 2, read-out: MIC values

Structure (SMILES)	MIC [1, 10]	MIC [2, 11]	MIC [7]	MIC [4, 12]	MIC [6, 13]	MIC [3, 14]	MIC [5, 15]	further results
CCC(O)(c1ccccc1)c1cn(-c2ccc(Cl)cc2O)nn1 (stereo not shown) [Compound 2db]	–	–	–	–	–	–	–	MIC [1, 8]: 128 mg/L (≈ 388 µM); MIC [2, 8]: 128 mg/L (≈ 388 µM); MIC [3, 8]: 128 mg/L (≈ 388 µM); MIC [4, 9]: >128 mg/L; MIC [5, 8]: 64 mg/L (≈ 194 µM); MIC [6, 8]: 128 mg/L (≈ 388 µM)
CC(O)(Cc1cn(-c2cc(Cl)ccc2O)nn1)c1ccc(Br)cc1 (stereo not shown) [Compound 3fa, 2-(4-(2-(4-Bromophenyl)-2-hydroxypropyl)-1H-1,2,3-triazol-1-yl)-4-chlorophenol]	16 mg/L (≈ 39.2 µM)	32 mg/L (≈ 78.3 µM)	64 mg/L (≈ 157 µM)	4 mg/L (≈ 9.79 µM)	32 mg/L (≈ 78.3 µM)	–	–	–
CC(O)(Cc1cn(-c2ccc(F)cc2O)nn1)c1ccc(Br)cc1 (stereo not shown) [Compound 3fc, 2-(4-(2-(4-Bromophenyl)-2-hydroxypropyl)-1H-1,2,3-triazol-1-yl)-5-fluorophenol]	64 mg/L (≈ 163 µM)	128 mg/L (≈ 326 µM)	128 mg/L (≈ 326 µM)	8 mg/L (≈ 20.4 µM)	64 mg/L (≈ 163 µM)	16 mg/L (≈ 40.8 µM)	64 mg/L (≈ 163 µM)	–
CC(O)(Cc1cn(-c2ccccc2O)nn1)c1ccc(Br)cc1 (stereo not shown) [Compound 3fd, 2-(4-(2-(4-Bromophenyl)-2-hydroxypropyl)-1H-1,2,3-triazol-1-yl)phenol]	128 mg/L (≈ 342 µM)	128 mg/L (≈ 342 µM)	256 mg/L (≈ 684 µM)	32 mg/L (≈ 85.5 µM)	128 mg/L (≈ 342 µM)	–	–	–
CC(O)(Cc1cn(-c2cc(Cl)ccc2O)nn1)c1ccc(F)cc1F (stereo not shown) [Compound 3aa, 4-Chloro-2-(4-(2-(2,4-difluorophenyl)-2-hydroxypropyl)-1H-1,2,3-triazol-1-yl)phenol]	> 256 mg/L	128 mg/L (≈ 350 µM)	128 mg/L (≈ 350 µM)	32 mg/L (≈ 87.5 µM)	64 mg/L (≈ 175 µM)	32 mg/L (≈ 87.5 µM)	32 mg/L (≈ 87.5 µM)	–
CCC(O)(c1ccccc1)c1cn(-c2cc(Cl)ccc2O)nn1 (stereo not shown) [Compound 2da]	–	–	–	–	–	–	–	MIC [1, 8]: 128 mg/L (≈ 388 µM); MIC [2, 8]: 64 mg/L (≈ 194 µM); MIC [4, 9]: 128 mg/L (≈ 388 µM); MIC [5, 8]: 128 mg/L (≈ 388 µM); MIC [6, 8]: >128 mg/L
CC(O)(Cc1cn(-c2cc(Cl)ccc2O)nn1)c1ccc(F)cc1 (stereo not shown) [Compound 3da, 4-Chloro-2-(4-(2(4fluorophenyl)-2-hydroxypropyl)-1H-1,2,3-triazol-1-yl)phenol]	64 mg/L (≈ 184 µM)	128 mg/L (≈ 368 µM)	128 mg/L (≈ 368 µM)	32 mg/L (≈ 92 µM)	64 mg/L (≈ 184 µM)	32 mg/L (≈ 92 µM)	64 mg/L (≈ 184 µM)	–
CC(O)(Cc1cn(-c2cc(Cl)ccc2O)nn1)c1ccc(Cl)cc1 (stereo not shown) [Compound 3ea, 4-Chloro-2-(4-(2-(4-chlorophenyl)-2-hydroxypropyl)-1H-1,2,3-triazol-1-yl)phenol]	64 mg/L (≈ 176 µM)	64 mg/L (≈ 176 µM)	64 mg/L (≈ 176 µM)	16 mg/L (≈ 43.9 µM)	32 mg/L (≈ 87.9 µM)	8 mg/L (≈ 22 µM)	16 mg/L (≈ 43.9 µM)	–
CC(O)(Cc1cn(-c2ccc(Cl)cc2O)nn1)c1ccc(Br)cc1 (stereo not shown) [Compound 3fb, 2-(4-(2-(4-Bromophenyl)-2-hydroxypropyl)-1H-1,2,3-triazol-1-yl)-5-chlorophenol]	64 mg/L (≈ 157 µM)	64 mg/L (≈ 157 µM)	64 mg/L (≈ 157 µM)	16 mg/L (≈ 39.2 µM)	32 mg/L (≈ 78.3 µM)	16 mg/L (≈ 39.2 µM)	32 mg/L (≈ 78.3 µM)	–
CC(O)(Cc1cn(-c2ccc(Cl)cc2O)nn1)c1ccc(Cl)cc1Cl (stereo not shown) [Compound 3bb, 5-Chloro-2-(4-(2-(2,4-dichlorophenyl)-2-hydroxypropyl)-1H-1,2,3-triazol-1-yl)phenol]	16 mg/L (≈ 40.1 µM)	32 mg/L (≈ 80.3 µM)	32 mg/L (≈ 80.3 µM)	4 mg/L (≈ 10 µM)	8 mg/L (≈ 20.1 µM)	16 mg/L (≈ 40.1 µM)	16 mg/L (≈ 40.1 µM)	–
CCCCC(O)(Cc1cn(-c2ccc(Cl)cc2O)nn1)c1ccccc1 (stereo not shown) [Compound 2hb]	–	–	–	–	–	–	–	MIC [1, 8]: >128 mg/L; MIC [2, 8]: >128 mg/L; MIC [3, 8]: >128 mg/L; MIC [4, 9]: 64 mg/L (≈ 172 µM); MIC [5, 8]: 64 mg/L (≈ 172 µM); MIC [6, 8]: 32 mg/L (≈ 86.1 µM)
CC(O)(Cc1cn(-c2ccc(Cl)cc2O)nn1)c1ccc(F)cc1 (stereo not shown) [Compound 3db, 5-Chloro-2-(4-(2-(4-fluorophenyl)-2-hydroxypropyl)-1H-1,2,3-triazol-1-yl)phenol]	32 mg/L (≈ 92 µM)	64 mg/L (≈ 184 µM)	128 mg/L (≈ 368 µM)	16 mg/L (≈ 46 µM)	128 mg/L (≈ 368 µM)	–	–	–
CC(O)(Cc1cn(-c2ccccc2O)nn1)c1ccc(Cl)cc1Cl (stereo not shown) [Compound 3bd, 2-(4-(2-(2,4-Dichlorophenyl)-2-hydroxypropyl)-1H-1,2,3-triazol-1-yl)phenol]	16 mg/L (≈ 43.9 µM)	32 mg/L (≈ 87.9 µM)	64 mg/L (≈ 176 µM)	8 mg/L (≈ 22 µM)	32 mg/L (≈ 87.9 µM)	–	–	–
CC(O)(Cc1cn(-c2cc(Cl)ccc2O)nn1)c1ccc(Cl)cc1Cl (stereo not shown) [Compound 3ba, 4-Chloro-2-(4-(2-(2,4-dichlorophenyl)-2-hydroxypropyl)-1H-1,2,3-triazol-1-yl)phenol]	> 256 mg/L	> 256 mg/L	> 256 mg/L	32 mg/L (≈ 80.3 µM)	> 256 mg/L	–	–	–
CN(C)c1ccc(C(O)Cc2cn(-c3cc(Cl)ccc3O)nn2)cc1 (stereo not shown) [Compound 3ga, 4-Chloro-2-(4-(2-(4-(dimethylamino)phenyl)-2-hydroxyethyl)-1H-1,2,3-triazol-1-yl)phenol]	–	–	–	–	–	–	–	MIC values ([1]; Table 2): >256 mg/L; MIC values ([2]; Table 2): >256 mg/L; MIC values [7]: >256 mg/L; MIC values ([3]; Table 2): 16 mg/L (≈ 44.6 µM); MIC values ([4]; Table 2): 64 mg/L (≈ 178 µM); MIC values ([5]; Table 2): 16 mg/L (≈ 44.6 µM); MIC values ([6]; Table 2): 64 mg/L (≈ 178 µM)
Oc1cc(Cl)ccc1-n1cc(CC(O)c2ccc(C(F)(F)F)cc2F)nn1 (stereo not shown) [Compound 3cb, 5-Chloro-2-(4-(2-(2-fluoro-4-(trifluoromethyl)phenyl)-2-hydroxyethyl)-1H-1,2,3-triazol-1-yl)phenol]	> 256 mg/L	> 256 mg/L	> 256 mg/L	16 mg/L (≈ 39.8 µM)	> 256 mg/L	–	–	–
CC(O)(Cc1cn(-c2ccccc2O)nn1)c1ccc(F)cc1 (stereo not shown) [Compound 3dd, 2-(4-(2-(4-Fluorophenyl)-2-hydroxypropyl)-1H-1,2,3-triazol-1-yl)phenol]	256 mg/L (≈ 817 µM)	256 mg/L (≈ 817 µM)	> 256 mg/L	64 mg/L (≈ 204 µM)	256 mg/L (≈ 817 µM)	–	–	–
CC(O)(Cc1cn(-c2ccc(F)cc2O)nn1)c1ccc(F)cc1 (stereo not shown) [Compound 3dc, 5-Fluoro-2-(4-(2-(4-fluorophenyl)-2-hydroxypropyl)-1H-1,2,3-triazol-1-yl)phenol]	128 mg/L (≈ 386 µM)	256 mg/L (≈ 773 µM)	> 256 mg/L	64 mg/L (≈ 193 µM)	256 mg/L (≈ 773 µM)	–	–	–
CC(O)(Cc1cn(-c2ccc(Cl)cc2O)nn1)c1ccc(F)cc1F (stereo not shown) [Compound 3ab, 5-Chloro-2-(4-(2-(2,4-difluorophenyl)-2-hydroxypropyl)-1H-1,2,3-triazol-1-yl)phenol]	64 mg/L (≈ 175 µM)	64 mg/L (≈ 175 µM)	64 mg/L (≈ 175 µM)	16 mg/L (≈ 43.7 µM)	32 mg/L (≈ 87.5 µM)	32 mg/L (≈ 87.5 µM)	32 mg/L (≈ 87.5 µM)	–
CC(O)(Cc1cn(-c2ccc(F)cc2O)nn1)c1ccc(Cl)cc1 (stereo not shown) [Compound 3ec, 2-(4-(2-(4-Chlorophenyl)-2-hydroxypropyl)-1H-1,2,3-triazol-1-yl)-5-fluorophenol]	64 mg/L (≈ 184 µM)	128 mg/L (≈ 368 µM)	128 mg/L (≈ 368 µM)	8 mg/L (≈ 23 µM)	128 mg/L (≈ 368 µM)	–	–	–
CC(O)(Cc1cn(-c2ccc(F)cc2O)nn1)c1ccc(Cl)cc1Cl (stereo not shown) [Compound 3bc, 2-(4-(2-(2,4-Dichlorophenyl)-2-hydroxypropyl)-1H-1,2,3-triazol-1-yl)-5-fluorophenol]	64 mg/L (≈ 167 µM)	64 mg/L (≈ 167 µM)	32 mg/L (≈ 83.7 µM)	16 mg/L (≈ 41.9 µM)	16 mg/L (≈ 41.9 µM)	8 mg/L (≈ 20.9 µM)	16 mg/L (≈ 41.9 µM)	–
CC(O)(Cc1cn(-c2ccc(F)cc2O)nn1)c1ccc(F)cc1F (stereo not shown) [Compound 3ac, 2-(4-(2-(2,4-Difluorophenyl)-2-hydroxypropyl)-1H-1,2,3-triazol-1-yl)-5-fluorophenol]	64 mg/L (≈ 183 µM)	128 mg/L (≈ 366 µM)	128 mg/L (≈ 366 µM)	8 mg/L (≈ 22.9 µM)	128 mg/L (≈ 366 µM)	–	–	–
Oc1cc(F)ccc1-n1cc(CC(O)c2ccc(C(F)(F)F)cc2F)nn1 (stereo not shown) [Compound 3cc, 5-Fluoro-2-(4-(2-(2-fluoro-4-(trifluoromethyl)phenyl)-2-hydroxyethyl)-1H-1,2,3-triazol-1-yl)phenol]	> 256 mg/L	> 256 mg/L	> 256 mg/L	128 mg/L (≈ 332 µM)	> 256 mg/L	–	–	–
CC(O)(Cc1cn(-c2ccccc2O)nn1)c1ccc(F)cc1F (stereo not shown) [Compound 3ad, 2-(4-(2-(2,4-Difluorophenyl)-2-hydroxypropyl)-1H-1,2,3-triazol-1-yl)phenol]	128 mg/L (≈ 386 µM)	128 mg/L (≈ 386 µM)	256 mg/L (≈ 773 µM)	8 mg/L (≈ 24.1 µM)	128 mg/L (≈ 386 µM)	–	–	–
CC(O)(Cc1cn(-c2ccccc2O)nn1)c1ccc(Cl)cc1 (stereo not shown) [Compound 3ed, 2-(4-(2-(4-Chlorophenyl)-2-hydroxypropyl)-1H-1,2,3-triazol-1-yl)phenol]	64 mg/L (≈ 194 µM)	128 mg/L (≈ 388 µM)	256 mg/L (≈ 776 µM)	8 mg/L (≈ 24.3 µM)	128 mg/L (≈ 388 µM)	–	–	–
